{"source": "patent US9518018B2", "about": "“3-alkoxy, thioalkyl and amino-4-amino-6-(substituted)picolinates and their use as herbicides” (Dow AgroSciences LLC, priority 2011, dated 2016)", "key": {"ZEAMX: corn (Zea mays)": {"test_system": "ZEAMX: corn (Zea mays)", "experiment": "Post-Emergent Test I herbicidal activity", "type": "in vivo", "how_it_was_run": "(§1)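 Greenhouse-grown seedlings (peat-based mix, pH 6.0–6.8; ~15 h photoperiod, 23–29 °C day) were sprayed post-emergence at first/second true-leaf stage with compound in acetone/DMSO/aqueous crop-oil–surfactant carrier at 187 L/ha, using a twofold rate series. Injury was scored visually after 14 d (0–100%); GR20/GR50/GR80 derived by probit analysis.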"}, "[1]": {"test_system": "ABUTH: velvetleaf (Abutilon theophrasti)", "experiment": "Post-Emergent Test I herbicidal activity", "type": "in vivo", "how_it_was_run": "as §1"}, "[2]": {"test_system": "ORYSA: rice (Oryza sativa)", "experiment": "Post-Emergent Test I herbicidal activity", "type": "in vivo", "conditions": "post-emergence, 336 h, Table 3, 140 g ai/ha, read-out: Visual Growth Reduction (%)-14 Days after Application ORYSA", "how_it_was_run": "(§2)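 Foliar spray, 187 L/ha, track sprayer; plants at 1st–2nd true leaf, 7–21 d old. Carrier: acetone/DMSO + aqueous acetone/IPA/crop oil/Triton X-155; high rate plus ½×–1/16× dilutions. Subirrigated; visual % injury vs untreated at 14 d.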"}, "[3]": {"test_system": "POLCO: buckwheat, wild (Polygonum convolvulus)", "experiment": "Post-Emergent Test I herbicidal activity", "type": "in vivo", "how_it_was_run": "as §1"}, "[4]": {"test_system": "CYPES: yellow nutsedge (Cyperus esculentus)", "experiment": "Post-Emergent Test I herbicidal activity", "type": "in vivo", "conditions": "post-emergence, 336 h, Table 3, 140 g ai/ha, read-out: Visual Growth Reduction (%)-14 Days after Application CYPES", "how_it_was_run": "as §1"}, "[5]": {"test_system": "TRZAS: wheat, spring (Triticum aestivum)", "experiment": "Post-Emergent Test I herbicidal activity", "type": "in vivo", "how_it_was_run": "as §2"}, "[6]": {"test_system": "ECHCG: barnyardgrass (Echinochloa crus-galli)", "experiment": "Post-Emergent Test I herbicidal activity", "type": "in vivo", "conditions": "post-emergence, 336 h, Table 3, 140 g ai/ha, read-out: Visual Growth Reduction (%)-14 Days after Application ECHCG", "how_it_was_run": "as §2"}, "[7]": {"test_system": "EPHHL: wild poinsettia (Euphorbia heterophylla)", "experiment": "Post-Emergent Test I herbicidal activity", "type": "in vivo", "conditions": "post-emergence, 336 h, Table 3, 140 g ai/ha, read-out: Visual Growth Reduction (%)-14 Days after Application EPHHL", "how_it_was_run": "as §1"}, "[8]": {"test_system": "CHEAL: lambsquarters (Chenopodium album)", "experiment": "Post-Emergent Test I herbicidal activity", "type": "in vivo", "conditions": "for pest or weed control at 140 g/ha: Table 3, 140 g ai/ha", "how_it_was_run": "as §1"}, "[9]": {"conditions": "Table 4, growth reduction of 20% of plant growth, 14 days after application, probit analysis"}, "[10]": {"conditions": "Table 4, growth reduction of 50% of plant growth, 14 days after application, probit analysis"}, "[11]": {"conditions": "Table 4, growth reduction of 80% of plant growth, 14 days after application, probit analysis"}, "[12]": {"conditions": "Zea mays, post-emergence, 336 h, Table 3, 140 g ai/ha, read-out: Visual Growth Reduction (%)-14 Days after Application ZEAMX"}, "[13]": {"conditions": "Abutilon theophrasti, post-emergence, 336 h, Table 3, 140 g ai/ha, read-out: Visual Growth Reduction (%)-14 Days after Application ABUTH"}, "[14]": {"conditions": "Chenopodium album, post-emergence, 336 h, read-out: Visual Growth Reduction (%)-14 Days after Application CHEAL"}}, "note": "Read-outs that look alike come from different tables or passages of the source."}
{"smiles": "COc1c(N)cc(-c2ccc(Cl)cc2)nc1C(=O)O", "note": "[Compound 46]", "values": [{"measurement": "GR20 ZEAMX", "setting": "ZEAMX: corn (Zea mays); [9]", "result": ">280", "unit": "g ai/ha"}, {"measurement": "GR50 ZEAMX", "setting": "ZEAMX: corn (Zea mays); [10]", "result": ">280", "unit": "g ai/ha"}, {"measurement": "GR80 ZEAMX", "setting": "ZEAMX: corn (Zea mays); [11]", "result": ">280", "unit": "g ai/ha"}, {"measurement": "pest or weed control at 140 g/ha", "setting": "ZEAMX: corn (Zea mays); [12]", "result": 0, "unit": "%"}, {"measurement": "pest or weed control at 17.5 g/ha", "setting": "ZEAMX: corn (Zea mays); Zea mays, post-emergence, 336 h, Table 4, 17.5 g ai/ha, read-out: Visual Growth Reduction (%)-14 Days after Application ZEAMX", "result": 0, "unit": "%"}, {"measurement": "pest or weed control at 35 g/ha", "setting": "ZEAMX: corn (Zea mays); Zea mays, post-emergence, 336 h, Table 4, 35 g ai/ha, read-out: Visual Growth Reduction (%)-14 Days after Application ZEAMX", "result": 0, "unit": "%"}, {"measurement": "pest or weed control at 70 g/ha", "setting": "ZEAMX: corn (Zea mays); Zea mays, post-emergence, 336 h, Table 4, 70 g ai/ha, read-out: Visual Growth Reduction (%)-14 Days after Application ZEAMX", "result": 0, "unit": "%"}, {"measurement": "pest or weed control at 140 g/ha", "setting": "ZEAMX: corn (Zea mays); Zea mays, post-emergence, 336 h, Table 4, 140 g ai/ha, read-out: Visual Growth Reduction (%)-14 Days after Application ZEAMX", "result": 0, "unit": "%"}, {"measurement": "pest or weed control at 280 g/ha", "setting": "ZEAMX: corn (Zea mays); Zea mays, post-emergence, 336 h, Table 4, 280 g ai/ha, read-out: Visual Growth Reduction (%)-14 Days after Application ZEAMX", "result": 0, "unit": "%"}, {"measurement": "pest or weed control at 140 g/ha", "setting": "[1]; [13]", "result": 100, "unit": "%"}, {"measurement": "pest or weed control at 17.5 g/ha", "setting": "[1]; Abutilon theophrasti, post-emergence, 336 h, Table 4, 17.5 g ai/ha, read-out: Visual Growth Reduction (%)-14 Days after Application ABUTH", "result": 80, "unit": "%"}, {"measurement": "pest or weed control at 35 g/ha", "setting": "[1]; Abutilon theophrasti, post-emergence, 336 h, Table 4, 35 g ai/ha, read-out: Visual Growth Reduction (%)-14 Days after Application ABUTH", "result": 85, "unit": "%"}, {"measurement": "pest or weed control at 70 g/ha", "setting": "[1]; Abutilon theophrasti, post-emergence, 336 h, Table 4, 70 g ai/ha, read-out: Visual Growth Reduction (%)-14 Days after Application ABUTH", "result": 95, "unit": "%"}, {"measurement": "pest or weed control at 140 g/ha", "setting": "[1]; Abutilon theophrasti, post-emergence, 336 h, Table 4, 140 g ai/ha, read-out: Visual Growth Reduction (%)-14 Days after Application ABUTH", "result": 100, "unit": "%"}, {"measurement": "pest or weed control at 280 g/ha", "setting": "[1]; Abutilon theophrasti, post-emergence, 336 h, Table 4, 280 g ai/ha, read-out: Visual Growth Reduction (%)-14 Days after Application ABUTH", "result": 100, "unit": "%"}, {"measurement": "GR20 ABUTH", "setting": "[1]; [9]", "result": "<17.5", "unit": "g ai/ha"}, {"measurement": "GR50 ABUTH", "setting": "[1]; [10]", "result": "<17.5", "unit": "g ai/ha"}, {"measurement": "GR80 ABUTH", "setting": "[1]; [11]", "result": 19.7, "unit": "g ai/ha"}, {"measurement": "pest or weed control at 140 g/ha", "setting": "[2]", "result": 0, "unit": "%"}, {"measurement": "Visual Growth Reduction (%)-14 Days after Application POLCO", "setting": "[3]; Table 4, 17.5 g ai/ha", "result": 80, "unit": "%"}, {"measurement": "Visual Growth Reduction (%)-14 Days after Application POLCO", "setting": "[3]; Table 4, 35 g ai/ha", "result": 90, "unit": "%"}, {"measurement": "Visual Growth Reduction (%)-14 Days after Application POLCO", "setting": "[3]; Table 4, 70 g ai/ha", "result": 100, "unit": "%"}, {"measurement": "Visual Growth Reduction (%)-14 Days after Application POLCO", "setting": "[3]; Table 4, 140 g ai/ha", "result": 100, "unit": "%"}, {"measurement": "Visual Growth Reduction (%)-14 Days after Application POLCO", "setting": "[3]; Table 4, 280 g ai/ha", "result": 100, "unit": "%"}, {"measurement": "GR20 POLCO", "setting": "[3]; [9]", "result": "<17.5", "unit": "g ai/ha"}, {"measurement": "GR50 POLCO", "setting": "[3]; [10]", "result": "<17.5", "unit": "g ai/ha"}, {"measurement": "GR80 POLCO", "setting": "[3]; [11]", "result": 18.6, "unit": "g ai/ha"}, {"measurement": "pest or weed control at 140 g/ha", "setting": "[4]", "result": 0, "unit": "%"}, {"measurement": "Visual Growth Reduction (%)-14 Days after Application TRZAS", "setting": "[5]; Table 4, 17.5 g ai/ha", "result": 15, "unit": "%"}, {"measurement": "Visual Growth Reduction (%)-14 Days after Application TRZAS", "setting": "[5]; Table 4, 35 g ai/ha", "result": 20, "unit": "%"}, {"measurement": "Visual Growth Reduction (%)-14 Days after Application TRZAS", "setting": "[5]; Table 4, 70 g ai/ha", "result": 40, "unit": "%"}, {"measurement": "Visual Growth Reduction (%)-14 Days after Application TRZAS", "setting": "[5]; Table 4, 140 g ai/ha", "result": 70, "unit": "%"}, {"measurement": "Visual Growth Reduction (%)-14 Days after Application TRZAS", "setting": "[5]; Table 4, 280 g ai/ha", "result": 75, "unit": "%"}, {"measurement": "GR20 TRZAS", "setting": "[5]; [9]", "result": 27.1, "unit": "g ai/ha"}, {"measurement": "GR50 TRZAS", "setting": "[5]; [10]", "result": 91.7, "unit": "g ai/ha"}, {"measurement": "GR80 TRZAS", "setting": "[5]; [11]", "result": 310, "unit": "g ai/ha"}, {"measurement": "pest or weed control at 140 g/ha", "setting": "[6]", "result": 15, "unit": "%"}, {"measurement": "pest or weed control at 140 g/ha", "setting": "[7]", "result": 100, "unit": "%"}, {"measurement": "pest or weed control at 140 g/ha", "setting": "[8]; [14]", "result": 100, "unit": "%"}, {"measurement": "pest or weed control at 17.5 g/ha", "setting": "[8]; Chenopodium album, post-emergence, 336 h, Table 4, 17.5 g ai/ha, read-out: Visual Growth Reduction (%)-14 Days after Application CHEAL", "result": 90, "unit": "%"}, {"measurement": "pest or weed control at 35 g/ha", "setting": "[8]; Chenopodium album, post-emergence, 336 h, Table 4, 35 g ai/ha, read-out: Visual Growth Reduction (%)-14 Days after Application CHEAL", "result": 95, "unit": "%"}, {"measurement": "pest or weed control at 70 g/ha", "setting": "[8]; Chenopodium album, post-emergence, 336 h, Table 4, 70 g ai/ha, read-out: Visual Growth Reduction (%)-14 Days after Application CHEAL", "result": 100, "unit": "%"}, {"measurement": "pest or weed control at 280 g/ha", "setting": "[8]; Chenopodium album, post-emergence, 336 h, Table 4, 280 g ai/ha, read-out: Visual Growth Reduction (%)-14 Days after Application CHEAL", "result": 100, "unit": "%"}, {"measurement": "Visual Growth Reduction (%)-14 Days after Application CHEAL", "setting": "[8]; Table 4, 140 g ai/ha", "result": 100, "unit": "%"}, {"measurement": "GR20 CHEAL", "setting": "[8]; [9]", "result": "<17.5", "unit": "g ai/ha"}, {"measurement": "GR50 CHEAL", "setting": "[8]; [10]", "result": "<17.5", "unit": "g ai/ha"}, {"measurement": "GR80 CHEAL", "setting": "[8]; [11]", "result": "<17.5", "unit": "g ai/ha"}, {"measurement": "melting point", "result": 165, "unit": "°C"}]}
{"smiles": "COc1c(C(=O)OCc2ccccc2)nc(-c2ccc(Cl)c(OC)c2F)c(F)c1N", "note": "[Compound 66, benzyl 4-amino-6-(4-chloro-2-fluoro-3-methoxyphenyl)-5-fluoro-3-methoxypicolinate]", "values": [{"measurement": "pest or weed control at 140 g/ha", "setting": "ZEAMX: corn (Zea mays); [12]", "result": 80, "unit": "%"}, {"measurement": "pest or weed control at 140 g/ha", "setting": "[1]; [13]", "result": 100, "unit": "%"}, {"measurement": "pest or weed control at 140 g/ha", "setting": "[2]", "result": 0, "unit": "%"}, {"measurement": "pest or weed control at 140 g/ha", "setting": "[4]", "result": 100, "unit": "%"}, {"measurement": "pest or weed control at 140 g/ha", "setting": "[6]", "result": 60, "unit": "%"}, {"measurement": "pest or weed control at 140 g/ha", "setting": "[7]", "result": 100, "unit": "%"}, {"measurement": "pest or weed control at 140 g/ha", "setting": "[8]; [14]", "result": 100, "unit": "%"}, {"measurement": "melting point", "result": 118, "unit": "°C"}]}
